Experimental data taken from US10273313B2, “Multimeric mannosides, a process for preparing the same and their uses as a drug” (CENTRE NATIONAL DE LA RECHERCHE SCIENTIFIQUE, priority 2012, dated 2019).
In brackets after ≈: the same amount, converted by molar mass.

Experiments:
bladder cell line 5637 = experiment: Anti-adhesives for bacterial bladder cell binding; type: cell-based; conditions: ten-fold dilution series
Description: The anti-adhesive capacities of the HM-derivatized cyclodextrins 1-4 were tested in vitro on the bladder cell line 5637, in a procedure analogous as previously described (Wellens, A. et al., PLoS ONE 3: e2040 (2008)). The CD conjugates 1-4 were diluted in a ten-fold series. The minimum inhibitory concentrations (MIC) indicate the concentrations of sugars at which we see some inhibition of binding of FimH to the bladder cells, they do however not indicate complete inhibition. MIC values for the CD-conjugates 1-4 followed a similar trend as the inhibitory concentrations recorded in HIA.
The anti-adhesive capacities of the n-heptyl α-D-mannoside-derivatized cyclodextrins 1-4 were tested in vitro on the bladder cell line 5637, in a procedure analogous to as described in (Wellens, A. et al., PLoS ONE 3: e2040 (2008)). The ligands have been diluted 10-fold and this is also the resolution limit of these tests.

[1] = tested on: E. coli strain UTI89 in the bladder of C3H/HeN mice; experiment: In vivo inhibition in the murine cystitis model (instillation with UTI89)
Description: In vivo inhibition was evaluated by instilling 1-4 together with the UTI89 strain via a catheter in the bladder of C3H/HeN mice. […] A group of ten animals was used for each concentration of antagonists. […] The animals were sacrificed at a 6 h post infection time.
A murine model of urinary tract infection was used to test the ability of the compounds to inhibit the colonization of UTI89 in the bladder [Hung C. S.; Dodson, K. W., Hultgren S. J. Nat. Protoc. 2009, 4, 1230-1243 and Wellens A.; Garofalo C.; Nguyen H.; Van Gerven N.; Slättegård R.; Hernalsteens, J.-P.; Wyns, L.; Oscarson, S.; De Greve H.; Hultgren S. J.; Bouckaert, J. PLoS ONE 2008, 3, e2040]. The solution with high concentration of compounds was added to the resuspension of UTI89 before given to the mice. The eight-week old Female C3H/HeN mice (Harlan, Horst, The Netherlands) were anesthetized and infected via transurethral catheterization of 10^7 CFU UTI89 in solution in PBS, or in PBS with the compound in the mentioned concentration. The mice were sacrificed at 24 hours post infection and the bladders were harvested, homogenized and resuspended in PBS. The serial dilutions were spot on LB medium agar plates. The bacterial load was determined by counting the CFU recovered from the bladder. The animal experiments were approved by the Ethical Committer for Animal Experiments of Vrije Universiteit Brussel and complied with all relevant national legislation and institutional policies. The Mann-Whitney test was applied for the comparison of the data obtained from the untreated group and inhibition group in GraphPad Prism version 5.1 and two tailed P value were shown (GraphPad software).
A limited number of papers described the in vivo efficiency of anti-adhesive mannosides to treat UTIs.

[2] = tested on: AIEC LF82 strain adhesion to T84 intestinal epithelial cells; experiment: Adhesion assay on T84 cells, cells incubated 1 h with mannoside prior infection (Example 21.1); type: cell-based, Escherichia coli
Description: E. coli strain LF82 was isolated from a chronic ileal lesion of a patient with Crohn's disease (CD). Bacteria were grown routinely in Luria-Bertani (LB) broth overnight at 37° C. Intestinal epithelial cells T84 derived from colonic adenocarcinoma were maintained in an atmosphere containing 5% CO2 at 37° C. in DMEM/F12 (50/50) medium supplemented with 10% (v/v) heat-inactivated fetal calf serum (FCS), 1% L-glutamine, 100 000 U·l^−1 penicillin, 100 mg·l^−1 streptomycin, 25 μg·l^−1 amphotericin B.
T84 cells were seeded in 48-well tissue culture plates with 1.5×10^5 cells per well and grown for 48 h. Cells were incubated 1 h prior infection with each mannoside at a final concentration of 100; 10; 1 or 0.1 μM in complete medium without antibiotics, containing heat inactivated fetal calf serum (FCS) and were next infected with AIEC LF82 strain at a multiplicity of infection (MOI) of 10 bacteria per cell. After a 3 h incubation period at 37° C., the monolayers were washed in phosphate-buffered saline (PBS; pH 7.2). The epithelial cells were then lysed with 1% Triton X-100 in deionized water. Samples were diluted and plated onto Luria Bertani agar plates to determine the number of cfu recovered from the lysed monolayers.
Results were expressed in percentage of residual adhesion, considering adhesion level of AIEC LF82 without mannoside treatment as 100%.

[3] = tested on: AIEC LF82 bacteria in colonic loops of CEABAC10 mice expressing human CEACAM6; experiment: Adhesion assay in colonic loops of CEABAC10 mice; type: in vivo; conditions: dose of 0.1 μmol, 4 h incubation
Description: E. coli strain LF82 was isolated from a chronic ileal lesion of a patient with Crohn's disease (CD). Bacteria were grown routinely in Luria-Bertani (LB) broth overnight at 37° C.
The transgenic mouse model CEABAC10 expressing the human CEACAM6 protein is available in the UMR Inserm/Université d'Auvergne 1071 led by Professor Arlette Darfeuille-Michaud at Clermont-Ferrand. This model is particularly suitable to reproduce the abnormal colonization by AIEC bacteria through the interaction with CEACAM6 molecules that were observed abnormally expressed in the ileal mucosa of Crohn's disease patients.
Three colonic loops were realized in anesthetized CEABAC10 mice. A volume of 100 μl of a bacterial suspension containing 6×10^6 bacteria/mL with or without inhibitory compound was injected into the loops (here, compound 2, example 1) or heptyl-mannose at a concentration of 100 μM). After an incubation period of 4 h, mice were euthanized and each loop was longitudinally opened, extensively washed and homogenized to numerate adherent LF82 bacteria. Bacterial adhesion was expressed as percentages of residual adhesion (100% corresponds to the adhesion in absence of any compound).

[4] = tested on: AIEC strain LF82 adhesion to T84 intestinal epithelial cells; experiment: Adhesion assay on T84 cells with thiazolylaminomannosides (Example 22.3); type: cell-based, Escherichia coli
Method in brief: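 CEACAM6-overexpressing T84 cells pre-incubated 1 h with compound (0.1, 1, 10, 100 μM), then infected with AIEC LF82 at MOI 10 for 3 h in compound presence. Cell-associated bacteria counted after washing; residual adhesion expressed relative to untreated (100%).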

FimH = FimH (Escherichia coli, UniProt P08191); conditions: Surface Plasmon Resonance (SPR); read-out: Dissociation constant of the HM-FimH complex; cited from earlier work
FimH, sequence (P08191 22-300): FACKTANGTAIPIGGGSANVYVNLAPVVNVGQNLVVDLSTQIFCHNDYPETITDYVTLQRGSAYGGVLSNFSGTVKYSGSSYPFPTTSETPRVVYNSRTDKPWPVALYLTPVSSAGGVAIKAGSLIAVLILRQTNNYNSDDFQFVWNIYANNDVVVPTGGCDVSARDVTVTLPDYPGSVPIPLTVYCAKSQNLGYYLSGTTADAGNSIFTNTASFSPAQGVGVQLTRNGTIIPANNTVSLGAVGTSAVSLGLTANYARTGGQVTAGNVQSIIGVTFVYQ

SMILES | MIC, anti-adhesive potency on bladder cell line 5637 (bladder cell line 5637) [nM] | Bacterial reduction compared with monovalent 1 and 3 at 1 mM ([1]; 10 μM (1.8 and 2.5 μg)) | Reduction of urinary tract infection ([1]; around 2 μg instilled in the mouse bladder, after 24 h) | Concentration reaching around 75% of binding inhibition (25% line) [2] [µM] | Bacterial adhesion in colonic loops compared with no inhibitor [3] | Inhibitory potency relative to α-D-mannose [4] [times] | Inhibitory effect on adhesion ([4]; 100 nM) | AIEC remaining attached to the cells (residual adhesion) ([4]; 1 μM) | Residual adhesion ([4]; 10 μM) [%] | Kd (FimH) [nM]
OCC1OC(OCCCCCCCOCc2cn(CC3OC4OC5C(Cn6cc(COCCCCCCCOC7OC(CO)C(O)C(O)C7O)nn6)OC(OC6C(Cn7cc(COCCCCCCCOC8OC(CO)C(O)C(O)C8O)nn7)OC(OC7C(Cn8cc(COCCCCCCCOC9OC(CO)C(O)C(O)C9O)nn8)OC(OC8C(Cn9cc(COCCCCCCCOC%10OC(CO)C(O)C(O)C%10O)nn9)OC(OC9C(Cn%10cc(COCCCCCCCOC%11OC(CO)C(O)C(O)C%11O)nn%10)OC(OC%10C(Cn%11cc(COCCCCCCCOC%12OC(CO)C(O)C(O)C%12O)nn%11)OC(OC3C(O)C4O)C(O)C%10O)C(O)C9O)C(O)C8O)C(O)C7O)C(O)C6O)C(O)C5O)nn2)C(O)C(O)C1O (centres unmarked) [Compound 2] | 400 (≈ 1.45 µg/mL) | equivalent bacterial reduction | significantly reduced the urinary tract infection | 1 | two-fold decreased adhesion |  |  |  |  | 
CCCCCCCO[C@H]1O[C@H](CO)[C@@H](O)[C@H](O)[C@@H]1O [HM, Heptylmannoside, reference compound] | 4000 (≈ 1.11 µg/mL) |  |  |  |  | 100 | no significant effect | No significant decrease | 52.4 | 5
